In assay [1] the target is T1, WT-His-P9-1 (Southern rice black-streaked dwarf virus, UniProt B2LHU4).
T1 construct: protein encoded by first ORF of segment S9 (P9)
The assay is described as follows: intrinsic fluorescence quenching titration. It counts as binding. The settings on record: 298 K, pH 7.4, 20 μM protein, excitation 275 nm, Hill equation.

The next assay concerns the target TR-ΔN6-His-P9-1 (Southern rice black-streaked dwarf virus, UniProt B2LHU4). Particulars: 298 K, 20 μM protein, excitation 275 nm, Hill equation.
For the next assay, the target named is TR-ΔC23-His-P9-1 (Southern rice black-streaked dwarf virus, UniProt B2LHU4). The settings on record: 298 K, 20 μM protein, excitation 275 nm, Hill equation.
In assay [2] the target is WT-His-P9-1 (Southern rice black-streaked dwarf virus, UniProt B2LHU4, S138T). Put plainly: biochemical.

On to `CCOP(=O)(OCC)C(Nc1nc2c(C)cccc2s1)c1ccccc1F` (stereo not shown) [DFL, dufulin], for which the “Binding parameters / KA (M^-1)” value at WT-His-P9-1 [1] is 1 × 10^5.061; at TR-ΔN6-His-P9-1, 1 × 10^6.421; at TR-ΔC23-His-P9-1 it was 1 × 10^4.470. The Kd – broadly, the constant that tells how readily two partners part at equilibrium – on WT-His-P9-1 [2] turned out to be 9.73 µM.

The values above are taken from publication PMC4379580 (Viruses, 2015).
